In one test the test system is PGC-1. Nature of the test: STZ-diabetic mouse, liver PGC-1 (Northern). Type of test: in vivo. The conditions noted are these: STZ-diabetic mice, after 10 days. The method, then: For the feeding experiments, male mice were either allowed free access to food or subjected to a 24 hour fast and sacrificed at the end of 24 hours. A third group was fasted for 24 hours and then fed ad libitum for another 24 hours prior to sacrifice. For the STZ-diabetic mouse experiments, 6-8 week old male mice (n=3 per group) were injected intraperitoneally for three consecutive days with either sodium citrate solution or streptozotocin ([…] of body weight per injection). Animals were sacrificed after 10 days, at which point the mean blood glucose in the STZ-treated group rose to over 400 mg/dl. For the LIRKO mouse experiments, two-month-old female control (lox/lox) or LIRKO mice were divided into three groups (n=2 each) and subjected to the standard feeding protocol as described above.
Total RNA was prepared from cells or tissues with Trizol (Life Technologies) according to the manufacturer's instructions. Ten to twenty micrograms of total RNA was fractionated in a 1% agarose-formaldehyde gel, transferred onto nylon, and hybridized with cDNA probes labeled by random-primed labeling (Boehringer Mannheim) with [-^32P]-dCTP, using methods known in the art. […]

Test [1] deals with FKHR. Nature of the test: 3×IRS promoter-luciferase reporter, FKHR coactivation. Type of test: cell-based. The conditions noted are these: PGC-1 cotransfected with wild-type or mutant FKHR.
Test [2] relates to gluconeogenic, ketogenic, and beta-oxidation genes. Description: Gene induction in control (floxed) or HNF-4α null primary hepatocytes. In kind it is cell-based. The conditions noted are these: presence and absence of HNF-4α. From the text:
The ability of PGC-1 to induce mRNA expression of gluconeogenic, ketogenic, and beta-oxidation genes was examined in cells lacking HNF-4α. Control (floxed) or HNF-4α null cells (primary hepatocytes) were infected with adenoviruses containing GFP (control) or PGC-1 and were either untreated, serum-starved, or treated with dexamethasone and cAMP.

A further test has as its system G6 Pase promoter. Description: G6 Pase promoter-luciferase reporter in SV40 transformed hepatocytes. Type of test: cell-based. The method, then:
PGC-1 and/or HNF-4α were cotransfected into SV40 transformed hepatocytes, and the ability to coactivate the glucose-6-phosphatase (G6 Pase) promoter was determined using a luciferase reporter gene. Experiments were performed in duplicate.
(A reporter such as luciferase makes a cellular process visible.)

In a further test the test system is COUP-TF. Description: Multimerized AF1 reporter assay in NIH 3T3 fibroblasts, COUP-TF. Type of test: cell-based. The method, then: (§1) NIH 3T3 or Fao hepatoma cells were cultured in 10% FBS-RPMI and transfected at 70-90% confluency using Fugene 6 (Roche). The ratio of DNA:Fugene was 1:2. Culture medium was changed after 24 hours. Cells were collected 48 hours after transfection and β-galactosidase and luciferase assays were performed. Transfections were performed in duplicate and repeated at least twice.
(§2) To examine these functional interactions at the AF1 site with intact transcription factors, reporter gene assays were performed using PGC-1, wild-type HNF-4α and COUP-TF proteins, and a multimerized AF1 response element. To avoid interference with endogenous liver factors, these experiments were done in NIH 3T3 fibroblasts. Transfections were done as described above for FIG. 4. Neither HNF-4α, COUP-TF, nor PGC-1 activates these target sequences alone (FIG. 6).

In the next test the test system is PEPCK promoter. Description: PEPCK promoter-luciferase reporter assay in Fao hepatoma cells. In kind it is cell-based, rat. The method, then: as §1
The ability of PGC-1 to activate the PEPCK-promoter (using a luciferase reporter gene) in hepatoma cells was examined. Fao rat hepatoma cells were maintained in 10% FBS-RPMI and transfected in a 6 well format with 200 ng of pPL32-PEPCK-luciferase (or pGL3-PEPCK-luciferase), 100 ng CMV β-galactosidase, and […] of pCMV or pCMV-PGC-1 per well. Cells were harvested for luciferase assays 48 hours after transfection, and the readings were normalized by β-galactosidase activity. […] In the transient transfection assays described above, PGC-1 activated the wild-type PEPCK promoter-reporter gene by approximately 10-fold (FIG. 4).
To identify the regulatory elements mediating the effect of PGC-1 on this promoter, mutant constructs were utilized in which various regulatory elements within the PEPCK-luciferase reporter construct were substituted by a yeast Gal4 DNA binding element (FIG. 1; Wang, J. C. et al. (1999) Mol. Endocrinol. 13:604-618). […] However, mutation of the AF1 or AF3 site (or both) each reduced the PGC-1-mediated activation by 50-60%; a combination of the AF1-to-Gal4 substitution and additional block mutations in the GR binding sites (GR1, GR2) led to a small but significant further decrease. […] A replacement of the P3 (I) site, an element shared by the cAMP and thyroid hormone response units, by the Gal4 DNA binding element caused a modest (25%) reduction in the PGC-1 mediated activation of the PEPCK reporter. […] It also appears that there are other unidentified regulatory elements on the PEPCK promoter through which PGC-1 can produce a partial activation.
The AF1 and AF3 sites are both DR-1 type sequences that can bind several nuclear receptors. […] The AF3 element has also been associated with COUP-TF binding (Scott et al (1996) supra). […] Vectors encoding the Gal4 DBD, Gal4 DBD-HNF-4α, or Gal4 DBD-COUP-TF fusion proteins (500 ng per well) were cotransfected with the mutant receptors, containing a substitution of a particular element within the Gal4 DBD, to determine whether they can rescue the PGC-1 activity. […] In contrast, cotransfection of a Gal4-COUP-TF construct produced only a partial restoration (approximately 20-30% of that achieved by HNF-4α), and cotransfection of the Gal4 DBD alone had virtually no effect on the PGC-1 mediated activation. Very similar results were obtained at the AF3 site.
The role of the glucocorticoid response elements in the PEPCK promoter was also examined. […] Fao hepatoma cells were transfected as described above for FIG. 4. Dexamethasone (dex, 1 μM final concentration) was added for the final 24 hours.

A further test has as its target T1, HNF-4α (Homo sapiens, UniProt P41235).
T1 construct: made in house; host or cells: TNT reticulocyte lysate in vitro transcription/translation (Promega)
T1 sequence (P41235 1-474): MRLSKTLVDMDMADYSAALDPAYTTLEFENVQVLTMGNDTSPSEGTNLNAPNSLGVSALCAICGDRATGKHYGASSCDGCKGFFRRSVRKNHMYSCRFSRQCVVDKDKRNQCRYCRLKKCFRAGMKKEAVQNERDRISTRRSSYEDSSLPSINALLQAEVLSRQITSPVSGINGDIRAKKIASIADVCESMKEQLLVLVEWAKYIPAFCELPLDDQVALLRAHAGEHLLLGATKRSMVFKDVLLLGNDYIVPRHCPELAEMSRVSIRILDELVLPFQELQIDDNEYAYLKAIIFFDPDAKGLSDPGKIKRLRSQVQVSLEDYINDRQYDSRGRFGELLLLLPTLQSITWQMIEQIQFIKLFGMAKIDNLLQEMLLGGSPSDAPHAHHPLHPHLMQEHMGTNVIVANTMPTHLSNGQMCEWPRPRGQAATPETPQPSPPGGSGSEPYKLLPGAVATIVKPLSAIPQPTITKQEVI
Nature of the test: Multimerized AF1 reporter assay in NIH 3T3 fibroblasts, HNF-4α. In kind it is cell-based. The conditions noted are these: NIH 3T3, no hormone or ligand added. The method, then: as §1, §2

Test [3] concerns PGC-1 protein, glucose-6-phosphatase and PEPCK mRNA. Nature of the test: Adenovirus infusion in Wistar rats, liver immunoblot and Northern. Type of test: in vivo. The conditions noted are these: rat liver, adenoviral PGC-1. The method, then:
Male Wistar rats (Charles River) were fed with standard laboratory food and weighed 300-350 g at the time of the studies. Animals were anesthetized by injection of 0.1 ml per 100 g body mass of a solution containing 25 mg/ml of xylazine (Phoenix Scientific) and 0.5 mg/ml of acepromazine (Fermenta Animal Health). CMV-GFP and CMV-PGC-1 adenoviruses were purified by CsCl gradient centrifugation as described in Becker, T. et al. (1994) Methods Cell Biol. 43:161-189. Pure recombinant virus (1×10^12 plaque forming units), suspended in 0.5 ml of phosphate buffered saline (PBS), was injected into anesthetized rats through the tail vein. Animals were allowed to recover and were fed standard food ad libitum. Five days after adenovirus infusion, tail vein blood was collected at 14:00 for measurement of glucose concentration, using a β-glucose analyzer (HemoCue AB). After the measurement, animals were sacrificed. Blood samples were collected from the heart, centrifuged at 1300 g for 15 minutes at 4° C. in 15 ml centrifuge tubes containing 50 μl of 0.4 M EDTA, and stored at −20° C. before measurement of insulin concentrations with a rat insulin specific radioimmunoassay kit (Linco Research). Liver samples were collected, snap frozen in liquid nitrogen, and stored at −80° C. Aliquots of frozen liver samples were processed for northern blot or immunoblot analysis. […]
(In general: In western blotting, separated proteins are transferred to a membrane and probed.)

Test [4] has as its system FKHR. Nature of the test: G6 Pase promoter-reporter, FKHR coactivation. Type of test: cell-based. The conditions noted are these: PGC-1 cotransfected with FKHR.
For test [5], the system named is G6 Pase, PEPCK and PGC-1 mRNA. Nature of the test: Insulin effect on mRNA levels and PGC-1 function in cultured liver cells. In kind it is cell-based. The conditions noted are these: for PGC-1 induced expression of PEPCK and glucose-6-phosphatase: cultured liver cells. The text has this:
This example describes experiments designed to determine whether insulin acts directly to suppress PGC-1 expression or function. The levels of PGC-1 mRNA were first examined in cells treated with various combinations of insulin, forskolin, and dexamethasone.
However, PGC-1 function is negatively regulated by insulin in cultured liver cells. […] FKHR is regulated directly by Akt via phosphorylation. Stimulation by insulin results in activation of Akt, which phosphorylates FKHR, which in turn inactivates FKHR by causing it to exit the nucleus. Insulin treatment downregulates the ability of PGC-1 to induce the gluconeogenic genes PEPCK and glucose-6-phosphatase. PGC-1 induced expression of the genes was […] when a constitutively active FKHR was used, while a dominant-negative FKHR also downregulates the ability of PGC-1 to induce these genes, even in the absence of insulin.

`CN(N=O)C(=O)N[C@H]1C(O)O[C@H](CO)[C@@H](O)[C@@H]1O` (mixture of isomers) [streptozotocin]: the “PGC-1 in liver (Northern)” value in the test with PGC-1 was “consistently increased”.

With “PGC-1: coactivator of nuclear receptors, expressed from transfected pCMV-PGC-1 or from adenovirus”, the “activation of 3×IRS promoter-luciferase reporter” value in the test on FKHR [1] is “can coactivate FKHR”. For the same molecule, the “induction of gluconeogenic genes glucose-6-phosphatase and PEPCK” value in test [2] is on record as “in the presence, but not the absence, of HNF-4α”. Moreover, the entries for the “activation of G6 Pase promoter-luciferase reporter” value in the test on G6 Pase promoter (cotransfected with HNF-4α) and in the test on G6 Pase promoter (transfected alone) were “strong coactivation” and “no activation”, respectively. Besides, the “coactivation of COUP-TF on multimerized AF1 response element” value with COUP-TF is on record as “no ability to coactivate”. In addition, the “activation of wild-type PEPCK promoter-reporter gene” value in the test with PEPCK promoter (Fao cells, 1 mg pCMV-PGC-1 per well, 48 hours) is “approximately 10 fold”. In the test with PEPCK promoter (P3 (I) site replaced by Gal4 DNA binding element), the “reduction in PGC-1 mediated activation of the PEPCK reporter” value is on record as 25%. Further, in the test with PEPCK promoter (dexamethasone 1 μM for the final 24 hours), the “coactivation of PEPCK promoter through the glucocorticoid receptor” value was “in a ligand dependant manner”. For the same molecule, the “magnitude of PGC-1 activation” value with PEPCK promoter (mutation in the AF2 or the CRE site) is “did not produce an appreciable effect”. In addition, in the test on PEPCK promoter (mutation of the AF1 or AF3 site (or both)), the “reduction of PGC-1-mediated activation” value is 50-60%. In the test with HNF-4α, the “coactivation of HNF-4α on multimerized AF1 response element” value is listed as “dramatically coactivates”. Further, the “liver PEPCK mRNA (Northern)” value in test [3] is given as “increased expression”. The “liver mRNA for glucose-6-phosphatase (Northern)” value in test [3] is “dramatic and uniform elevation”. Also, in the test on FKHR [4], the “coactivation on wild type G6 Pase promoter-reporter” value was “coactivated FKHR”.

Consider insulin, for which, in test [5], the “G6 Pase mRNA levels” value is recorded as “downregulated”; the “PGC-1 mRNA levels” value was “do not change”; the “PGC-1 induced expression of PEPCK and glucose-6-phosphatase” value is recorded as “downregulates”.

B1: constitutively active FKHR: FKHR with three phosphorylatable amino acids changed to alanine (protein, UniProt Q12778 1-655, looked up, variant T24A S256A S319A)
Forkhead box protein O1: MAEAPQVVEIDPDFEPLPRPRSCAWPLPRPEFSQSNSATSSPAPSGSAAANPDAAAGLPSASAAAVSADFMSNLSLLEESEDFPQAPGSVAAAVAAAAAAAATGGLCGDFQGPEAGCLHPAPPQPPPPGPLSQHPPVPPAAAGPLAGQPRKSSSSRRNAWGNLSYADLITKAIESSAEKRLTLSQIYEWMVKSVPYFKDKGDSNSSAGWKNSIRHNLSLHSKFIRVQNEGTGKSSWWMLNPEGGKSGKSPRRRAAAMDNNSKFAKSRSRAAKKKASLQSGQEGAGDSPGSQFSKWPASPGSHSNDDFDNWSTFRPRTSANASTISGRLSPIMTEQDDLGEGDVHSMVYPPSAAKMASTLPSLSEISNPENMENLLDNLNLLSSPTSLTVSTQSSPGTMMQQTPCYSFAPPNTSLNSPSPNYQKYTYGQSSMSPLPQMPIQTLQDNKSSYGGMSQYNCAPGLLKELLTSDSPPHNDIMTPVDPGVAQPNSRVLGQNVMMGPNSVMSTYGSQASHNKMMNPSSHTHPGHAQQTSAVNGRPLPHTVSTMPHTSGMNRLTQVKTPVQVPLPHPMQMSALGGYSSVSSCNGYGRMGLLHQEKLPSDLDGMFIERLDCDMESIIRNDLMDGDTLDFNFDNVLPNQSFPHSVKTTTHSWVSG
As to B1, the “activation of 3×IRS promoter-luciferase reporter” value in the test with FKHR [1] was “increased activation”. In the test on FKHR [4], the “coactivation on wild type G6 Pase promoter-reporter” value is recorded as “further increased”. Further, in test [5], the “PGC-1 induced expression of PEPCK and glucose-6-phosphatase” value is “unchanged”.

These data come from patent publication US7371529B2, “Methods and compositions for modulating gluconeogenesis using PGC-1” (Dana-Farber Cancer Institute, Inc., priority 2001, dated 2008).
